Test results published in ChEMBL document CHEMBL4265969, “Design, synthesis and biological evaluation of (2S,3R,4R,5S,6R)-5-fluoro-6-(hydroxymethyl)-2-aryltetrahydro-2H-pyran-3,4-diols as potent and orally active SGLT dual inhibitors” (Bioorg Med Chem Lett, 2018).
Activity calls are given as the source filed them. No cut-off for these calls is given here.

How the values were obtained:
[1] = Clearance in cynomolgus monkey at 2 mg/kg, iv; assay type: ADME, organism-based, Macaca fascicularis; settings: in vivo
[2] = Cmax in cynomolgus monkey at 10 mg/kg, po; assay type: ADME, organism-based, Macaca fascicularis; set-up: dose 10 mg/kg, route oral; settings: in vivo
[3] = Tmax in cynomolgus monkey at 10 mg/kg, po; assay type: ADME, organism-based, Macaca fascicularis; settings: in vivo
[4] = tested on: Rattus norvegicus; experiment: Antidiabetic activity in Sprague-Dawley rat assessed as decrease in postprandial blood glucose level administered orally 1 hr prior to glucose challenge measured up to 120 mins by OGTT; assay type: functional, organism-based
[5] = Half life in Sprague-Dawley rat hepatocytes at 1 uM; assay type: ADME, cell-based, Hepatocyte
[6] = Oral bioavailability in cynomolgus monkey at 10 mg/kg; assay type: ADME, organism-based, Macaca fascicularis; settings: in vivo
[7] = Oral bioavailability in Sprague-Dawley rat at 10 mg/kg; assay type: ADME, organism-based; settings: in vivo
[8] = AUC (0 to infinity) in cynomolgus monkey at 10 mg/kg, po; assay type: ADME, organism-based, Macaca fascicularis; set-up: dose 10 mg/kg, time infinity, route oral; settings: in vivo
[9] = Half life in cynomolgus monkey at 10 mg/kg, po; assay type: ADME, organism-based, Macaca fascicularis; settings: in vivo
[10] = Half life in cynomolgus monkey at 2 mg/kg, iv; assay type: ADME, organism-based, Macaca fascicularis; settings: in vivo
[11] = Tmax in Sprague-Dawley rat at 10 mg/kg, po; assay type: ADME, organism-based; settings: in vivo
[12] = Half life in human hepatocytes at 1 uM; assay type: ADME, cell-based, Hepatocyte
[13] = Metabolic stability in human liver microsomes at 1 uM after 10 mins in presence of NADPH; assay type: ADME, microsome; settings: read-out: Stability
[14] = Metabolic stability in rat liver microsomes at 1 uM after 10 mins in presence of NADPH; assay type: ADME, microsome; settings: read-out: Stability
[15] = Volume of distribution at steady state in cynomolgus monkey at 2 mg/kg, iv; assay type: ADME, organism-based, Macaca fascicularis; settings: in vivo, read-out: Vdss
[16] = target: T1, Sodium/glucose cotransporter 2 (Rattus norvegicus, UniProt P53792); experiment: Inhibition of rat SGLT2 expressed in CHOK1 cells assessed as reduction in Na-dependent [14C]-AMG uptake preincubated for 10 mins followed by [14C]-AMG addition measured after 2 hrs by TopCount method; assay type: cell-based
T1 sequence (P53792 whole entry): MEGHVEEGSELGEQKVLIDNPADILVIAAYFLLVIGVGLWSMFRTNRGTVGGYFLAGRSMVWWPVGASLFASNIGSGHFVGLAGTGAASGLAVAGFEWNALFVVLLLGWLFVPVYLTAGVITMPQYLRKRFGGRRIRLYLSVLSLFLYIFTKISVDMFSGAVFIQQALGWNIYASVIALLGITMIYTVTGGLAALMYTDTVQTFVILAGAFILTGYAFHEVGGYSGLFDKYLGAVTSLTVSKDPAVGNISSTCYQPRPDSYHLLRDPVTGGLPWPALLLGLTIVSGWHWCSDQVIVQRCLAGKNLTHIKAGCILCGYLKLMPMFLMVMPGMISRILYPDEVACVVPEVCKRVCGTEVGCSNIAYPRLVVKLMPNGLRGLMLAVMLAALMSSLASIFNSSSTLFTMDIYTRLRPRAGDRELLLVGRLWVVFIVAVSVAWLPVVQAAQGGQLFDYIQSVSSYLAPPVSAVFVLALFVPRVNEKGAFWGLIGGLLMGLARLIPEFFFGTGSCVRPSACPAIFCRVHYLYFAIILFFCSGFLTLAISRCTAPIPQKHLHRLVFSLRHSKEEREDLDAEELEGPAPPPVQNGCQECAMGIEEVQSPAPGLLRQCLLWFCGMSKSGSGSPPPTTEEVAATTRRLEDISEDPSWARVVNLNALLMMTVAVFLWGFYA

[17] = Metabolic stability in mouse liver microsomes at 1 uM after 10 mins in presence of NADPH; assay type: ADME, microsome; settings: read-out: Stability
[18] = AUC (0 to infinity) in Sprague-Dawley rat at 10 mg/kg, po; assay type: ADME, organism-based; set-up: dose 10 mg/kg, route oral, time infinity; settings: in vivo
[19] = Volume of distribution at steady state in Sprague-Dawley rat at 2 mg/kg, iv; assay type: ADME, organism-based; settings: in vivo, read-out: Vdss
[20] = target: Voltage-gated inwardly rectifying potassium channel KCNH2 (Homo sapiens, UniProt Q12809); experiment: Inhibition of human ERG at 50 uM
Chain of Voltage-gated inwardly rectifying potassium channel KCNH2 (Q12809 whole entry): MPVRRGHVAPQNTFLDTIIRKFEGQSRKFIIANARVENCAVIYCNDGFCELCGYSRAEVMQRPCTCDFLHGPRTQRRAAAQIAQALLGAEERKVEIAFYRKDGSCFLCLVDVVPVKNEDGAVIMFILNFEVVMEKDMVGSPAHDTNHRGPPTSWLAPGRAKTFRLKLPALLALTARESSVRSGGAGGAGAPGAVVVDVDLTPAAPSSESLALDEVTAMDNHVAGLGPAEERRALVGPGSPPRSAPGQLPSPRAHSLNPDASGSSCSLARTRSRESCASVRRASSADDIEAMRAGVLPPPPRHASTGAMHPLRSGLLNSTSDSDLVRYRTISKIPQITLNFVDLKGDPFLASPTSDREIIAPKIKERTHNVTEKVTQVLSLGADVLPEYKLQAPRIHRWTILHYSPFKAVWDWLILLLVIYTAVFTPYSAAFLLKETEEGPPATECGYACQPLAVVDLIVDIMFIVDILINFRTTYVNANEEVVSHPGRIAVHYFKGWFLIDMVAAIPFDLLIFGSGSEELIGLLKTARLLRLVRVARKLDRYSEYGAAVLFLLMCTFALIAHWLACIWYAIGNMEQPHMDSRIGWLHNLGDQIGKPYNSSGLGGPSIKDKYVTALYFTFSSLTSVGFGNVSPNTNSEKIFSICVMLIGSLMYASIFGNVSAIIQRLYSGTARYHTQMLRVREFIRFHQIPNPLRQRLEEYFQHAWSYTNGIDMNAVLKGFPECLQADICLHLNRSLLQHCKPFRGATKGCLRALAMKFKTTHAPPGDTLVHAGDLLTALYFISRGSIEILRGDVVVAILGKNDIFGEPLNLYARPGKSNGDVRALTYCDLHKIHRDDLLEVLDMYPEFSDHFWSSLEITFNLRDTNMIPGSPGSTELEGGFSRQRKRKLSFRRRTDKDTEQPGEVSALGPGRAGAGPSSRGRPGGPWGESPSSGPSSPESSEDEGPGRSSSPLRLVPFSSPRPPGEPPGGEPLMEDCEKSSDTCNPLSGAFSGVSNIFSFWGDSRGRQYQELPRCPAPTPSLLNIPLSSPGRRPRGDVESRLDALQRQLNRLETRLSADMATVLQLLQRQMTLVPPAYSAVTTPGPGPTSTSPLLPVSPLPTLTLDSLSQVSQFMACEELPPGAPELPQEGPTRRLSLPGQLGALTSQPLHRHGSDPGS

[21] = Half life in Sprague-Dawley rat at 2 mg/kg, iv; assay type: ADME, organism-based; settings: in vivo
[22] = tested on: Rattus norvegicus; experiment: Antidiabetic activity in Sprague-Dawley rat assessed as decrease in postprandial blood glucose AUC at 1 mg/kg, po administered 1 hr prior to glucose challenge measured up to 120 mins by OGTT relative to control; assay type: functional; set-up: scale not given: the % may be the effect or the level left
[23] = Clearance in Sprague-Dawley rat at 2 mg/kg, iv; assay type: ADME, organism-based; settings: in vivo
[24] = Half life in monkey hepatocytes at 1 uM; assay type: ADME, cell-based, Macaca mulatta, Hepatocyte; settings: rhesus monkey
[25] = Half life in Sprague-Dawley rat at 10 mg/kg, po; assay type: ADME, organism-based; settings: in vivo
[26] = Cmax in Sprague-Dawley rat at 10 mg/kg, po; assay type: ADME, organism-based; set-up: dose 10 mg/kg, route oral; settings: in vivo
[27] = tested on: Mus musculus; experiment: In vivo inhibition of SGLT2 in db/db mouse assessed as increase in urine glucose excretion at 10 mg/kg, po after 24 hrs; assay type: functional, organism-based
[28] = Half life in dog hepatocytes at 1 uM; assay type: ADME, cell-based, Canis lupus familiaris, Hepatocyte
[29] = tested on: Mus musculus; experiment: Anti-hyperglycemic effect in db/db mouse assessed as decrease in fed blood glucose AUC at 10 mg/kg, po measured up to 24 hrs relative to control; assay type: functional; set-up: scale not given: the % may be the effect or the level left
[30] = target: T2, Sodium/glucose cotransporter 1 (Rattus norvegicus, UniProt P53790); experiment: Inhibition of rat SGLT1 expressed in CHOK1 cells assessed as reduction in Na-dependent [14C]-AMG uptake preincubated for 10 mins followed by [14C]-AMG addition measured after 2 hrs by TopCount method; assay type: cell-based
T2 sequence (P53790 whole entry): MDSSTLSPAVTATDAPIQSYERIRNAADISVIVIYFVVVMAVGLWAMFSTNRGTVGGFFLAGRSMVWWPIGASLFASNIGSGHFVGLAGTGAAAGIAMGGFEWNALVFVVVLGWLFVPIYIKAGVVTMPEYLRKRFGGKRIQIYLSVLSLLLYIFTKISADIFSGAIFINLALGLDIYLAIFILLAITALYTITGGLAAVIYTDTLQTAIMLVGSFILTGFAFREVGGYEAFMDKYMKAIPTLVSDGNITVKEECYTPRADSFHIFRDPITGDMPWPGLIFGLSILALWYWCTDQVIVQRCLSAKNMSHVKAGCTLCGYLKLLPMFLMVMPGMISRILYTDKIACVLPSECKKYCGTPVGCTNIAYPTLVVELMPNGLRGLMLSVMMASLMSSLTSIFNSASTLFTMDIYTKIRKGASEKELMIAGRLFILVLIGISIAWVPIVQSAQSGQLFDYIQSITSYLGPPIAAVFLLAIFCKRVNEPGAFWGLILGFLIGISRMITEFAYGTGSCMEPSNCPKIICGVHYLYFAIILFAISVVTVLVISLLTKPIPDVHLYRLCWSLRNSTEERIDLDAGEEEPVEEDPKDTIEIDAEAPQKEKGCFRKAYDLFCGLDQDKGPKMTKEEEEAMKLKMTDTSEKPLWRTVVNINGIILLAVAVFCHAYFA

[31] = tested on: Rattus norvegicus; experiment: Anti-hyperglycemic effect in ZDF rat assessed as decrease in fed blood glucose AUC at 10 mg/kg, po measured up to 24 hrs relative to control; assay type: functional; set-up: scale not given: the % may be the effect or the level left
[32] = tested on: Salmonella typhimurium; experiment: Genotoxicity in Salmonella typhimurium TA98; assay type: toxicity, organism-based; settings: salmonella enterica subsp. enterica serovar typhimurium

COc1c([C@@H]2O[C@H](CO)[C@@H](F)[C@H](O)[C@H]2O)cc(Cc2ccc3c(c2)OCCO3)c2c1CCO2
clearance [1]: 15.5 mL/min/kg | Cmax [2]: 1490 ng/mL | Tmax [3]: 1.33 h | Activity [4]: Dose-dependent effect | half-life at 1 µM [5]: 1.2 h | bioavailability [6]: 56% | bioavailability [7]: 48.2% | AUC(0-inf) [8]: 6090 ng·h/mL | half-life [9]: 5.6 h | half-life [10]: 7.9 h | Tmax [11]: 0.3 h | half-life at 1 µM [12]: 5.4 h | remaining at 10 min, 1 µM [13]: 95% | remaining at 10 min, 1 µM [14]: 66% | Vd [15]: 3.05 L/kg | IC50 [16]: 16 nM | remaining at 10 min, 1 µM [17]: 82% | AUC(0-inf) [18]: 1600 ng·h/mL | Vd [19]: 1.07 L/kg | inhibition (INH) [20]: Not Active | half-life [21]: 0.41 h | Activity [22]: 32.4% | clearance [23]: 50.9 mL/min/kg | half-life at 1 µM [24]: 2.2 h | half-life [25]: 1.44 h | Cmax [26]: 990 ng/mL | inhibition [27]: Active | half-life at 1 µM [28]: 8 h | Activity [29]: 57.4% | IC50 [30]: 68 nM | Activity [31]: 56.8% | Activity [32]: Non-Toxic
